Holding throughout (test): inhibition of tumour cell growth, NCI panel, 48 h
Assay [1] relates to 786-0.
The subject of assay [2] is DU-145.
For assay [3], the system named is EKVX.
The test system of assay [4] is HCC 2998.
Assay [5] relates to HCT-15.
Assay [6] has as its system MDA-N.
Assay [7] relates to Malme-3M.
Assay [8] has as its system NCI-H460.
Assay [9] has as its system OVCAR-4.
Assay [10] has as its system OVCAR-8.
In assay [11] the test system is PC-3.
Assay [12] concerns RXF 393.
For assay [13], the system named is SK-MEL-2.
The test system of assay [14] is SK-MEL-5.
Assay [15] relates to SK-OV-3.
In assay [16] the test system is SN12C.
Assay [17] relates to SW-620.
The test system of assay [18] is T47D.
Assay [19] deals with UACC-257.
In assay [20] the test system is UO-31.

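How tested: cells in 96-well plates exposed to compound for 48 hours at five concentrations. Here, GI50 denotes the concentration required for 50% inhibition of growth.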 Active and inactive are the calls of the source. Rule as the data show it: active = GI50 up to about 1.1 µM and inactive = higher. Where only a bound is given, the exact number is not on record here.

Take `COc1cc(/C=C\c2nnc(/C=C\c3ccc(O)c(OC)c3)s2)ccc1O`: the GI50 is 3.85 µM (inactive) in [1]; 2.32 µM (inactive) in assay [2]; 3.74 µM (inactive) in assay [3]; 3.48 µM (inactive) in [4]; 1.49 µM in [5]; 0.689 µM (active) in assay [6]. Also, the GI50 in [7] is 2.11 µM (inactive); in [8], 3.09 µM (inactive); in [9], 2.61 µM (inactive); in assay [10] it was 3.78 µM (inactive); in assay [11], 3.94 µM (inactive); in assay [12], 1.16 µM (inactive). The GI50 was 3.61 µM (inactive) in assay [13]; 1.16 µM (inactive) in assay [14]; 4.41 µM (inactive) in assay [15]; 4.31 µM (inactive) in assay [16]; 1.74 µM (inactive) in [17]; 2.12 µM (inactive) in assay [18]. Moreover, the GI50 is 2.16 µM (inactive) in [19] and 3.47 µM (inactive) in assay [20].

In the case of `[N-]=[N+]=NCC1OC(n2cnc3c(N)ncnc32)C2OC12` (stereo unspecified), the GI50 in assay [1] was > 100 µM (inactive); in assay [2], > 100 µM (inactive); in assay [3], > 100 µM (inactive); in assay [4], > 100 µM (inactive); in assay [5] it was more than 100 µM; in assay [6], > 100 µM (inactive). Further, the GI50 in [7], in assay [8], in [9], in assay [10], in assay [11] and in assay [12] was > 100 µM (inactive) each time. Moreover, the GI50 in assay [13], in assay [14], in assay [15], in assay [16], in assay [17] and in assay [18] was > 100 µM (inactive) in each case. Also, the GI50 in [19] and in assay [20] was > 100 µM (inactive) each time.

Consider `COc1cccc2c1C(=O)C1=C(C2=O)C(O)CC(C)(C)O1` (stereo unspecified), for which the GI50 is 42.4 µM (inactive) in [1]; > 100 µM (inactive) in assay [2]; 43.1 µM (inactive) in assay [3]; 33.6 µM (inactive) in [4]; 38.6 µM in assay [5]; 19.5 µM (inactive) in [6]. Moreover, the GI50 is 16.6 µM (inactive) in [7]; 42.9 µM (inactive) in [8]; 19.3 µM (inactive) in assay [9]; 27.7 µM (inactive) in assay [10]; 25.5 µM (inactive) in assay [11]; 71 µM (inactive) in [12]. Further, the GI50 in assay [13] is 36.2 µM (inactive); in assay [14] it was 14.4 µM (inactive); in [15] it was > 100 µM (inactive); in assay [16], 32.5 µM (inactive); in assay [17] it was 34.1 µM (inactive); in assay [18], 49.8 µM (inactive). Further, the GI50 was 22.4 µM (inactive) in assay [19] and 58.9 µM (inactive) in [20].

`O=C(NN=C1NCCN1)c1ccco1`: the GI50 in [1] is > 100 µM (inactive); in assay [2], > 100 µM (inactive); in assay [3], > 100 µM (inactive); in [4], > 100 µM (inactive); in [5] it was more than 100 µM; in assay [6], > 100 µM (inactive). Moreover, the GI50 in [7], in assay [8], in [9], in assay [10], in assay [11] and in [12] was > 100 µM (inactive) each time. Also, the GI50 in [13], in [14], in assay [15], in [16], in [17] and in assay [18] was > 100 µM (inactive) in each case. For the same molecule, the GI50 in [19] and in [20] was > 100 µM (inactive) throughout.

`Nc1nc2cc(CNc3ccc(C(=O)NC(CCC(=O)O)C(=O)O)cc3)ccc2nc1-c1ccccc1` (stereo unspecified): the GI50 in assay [1] is > 10 µM (inactive); in [2] it was > 10 µM (inactive); in assay [3], > 10 µM (inactive); in [4], > 10 µM (inactive); in [5], more than 10 µM; in assay [6], > 10 µM (inactive). Further, the GI50 in assay [7], in assay [8], in [9], in assay [10], in [11] and in assay [12] was > 10 µM (inactive) in each case. In addition, the GI50 in assay [13], in assay [14], in assay [15], in assay [16], in assay [17] and in assay [18] was > 10 µM (inactive) in each case. Also, the GI50 in assay [19] and in assay [20] was > 10 µM (inactive) each time.

As to `C/C(=N\NC(=S)N1CCN(c2ccccn2)CC1)c1cccc2cccnc12`, the GI50 in assay [1] was 4.29 µM (inactive); in assay [2] it was 3.56 µM (inactive); in [3] it was 3.59 µM (inactive); in [4] it was 5.47 µM (inactive); in assay [5] it was 3.68 µM; in assay [6] it was 4.71 µM (inactive). Further, the GI50 in assay [7] is 4.76 µM (inactive); in [8], 3.51 µM (inactive); in assay [9], 4.03 µM (inactive); in [10] it was 3.43 µM (inactive); in assay [11], 3.67 µM (inactive); in [12] it was 3.33 µM (inactive). Further, the GI50 is 2.51 µM (inactive) in assay [13]; 2.46 µM (inactive) in assay [14]; 11.4 µM (inactive) in [15]; 4.07 µM (inactive) in assay [16]; 4.33 µM (inactive) in assay [17]; 3.68 µM (inactive) in assay [18]. For the same molecule, the GI50 in [19] is 2.84 µM (inactive); in assay [20], 4.36 µM (inactive).

Take `COc1cc(-c2cc(OC)c(OC)c3ccc(Br)cc23)c2cc(Br)ccc2c1OC`: the GI50 in assay [1] is 19.8 µM (inactive); in assay [2], 29 µM (inactive); in [3], 85.9 µM (inactive); in assay [4], 36.1 µM (inactive); in assay [5], 63.2 µM; in assay [6], 22.5 µM (inactive). Also, the GI50 in [7] was 24.1 µM (inactive); in [8], 41.7 µM (inactive); in assay [9], 15 µM (inactive); in assay [11], 20.6 µM (inactive); in assay [12], 15.1 µM (inactive); in assay [13], 25.4 µM (inactive). The GI50 in assay [14] is 32.3 µM (inactive); in [15], 30.8 µM (inactive); in assay [16], 26 µM (inactive); in assay [17], 80.5 µM (inactive); in [18] it was 31.6 µM (inactive); in assay [19] it was 46.1 µM (inactive). Moreover, the GI50 in assay [20] is 41.8 µM (inactive).

In the case of `O=C1c2ccccc2C(=O)N1NC1=NCCN1`, the GI50 is > 100 µM (inactive) in assay [1]; > 100 µM (inactive) in [2]; > 100 µM (inactive) in assay [3]; > 100 µM (inactive) in [4]; more than 100 µM in assay [5]; > 100 µM (inactive) in assay [6]. The GI50 in assay [7], in assay [8], in assay [9], in assay [10], in assay [11] and in assay [12] was > 100 µM (inactive) in each case. In addition, the GI50 in assay [13], in [14], in assay [15], in assay [16], in [17] and in assay [18] was > 100 µM (inactive) throughout. For the same molecule, the GI50 in assay [19] is > 100 µM (inactive).

For `Cc1cc(N(CCC#N)CCC#N)ccc1C(/N=N\c1ccc([N+](=O)[O-])cc1)=N\NC(=O)c1cc(Cl)ccc1O`, the GI50 in [1] was 47.8 µM (inactive); in [2], 46.3 µM (inactive); in assay [3], 24.3 µM (inactive); in [4], 16.4 µM (inactive); in assay [5], 29.6 µM; in [6], 51.3 µM (inactive). Also, the GI50 in [7] is 28.1 µM (inactive); in [8], 25.1 µM (inactive); in assay [9], 26.5 µM (inactive); in [10], 19.8 µM (inactive); in assay [11], 23 µM (inactive); in assay [12] it was 28.6 µM (inactive). Further, the GI50 was 34.4 µM (inactive) in assay [13]; 30.6 µM (inactive) in assay [14]; 50.7 µM (inactive) in assay [15]; 22.6 µM (inactive) in assay [16]; 25.9 µM (inactive) in assay [18]; 34 µM (inactive) in [19]. The GI50 in [20] was 13.8 µM (inactive).

Regarding `Cc1ccc(C2=CC(=O)OC(C[P+](c3ccccc3)(c3ccccc3)c3ccccc3)(c3ccccc3)O2)cc1` (stereo unspecified), the GI50 in assay [1] was 19.3 µM (inactive); in assay [2], 16.5 µM (inactive); in assay [3], 15.3 µM (inactive); in [4] it was 22.4 µM (inactive); in assay [5], 20 µM; in assay [6], 14.7 µM (inactive). Besides, the GI50 in [7] was 16.1 µM (inactive); in assay [8], 17.8 µM (inactive); in assay [9] it was 16.4 µM (inactive); in assay [10], 24.5 µM (inactive); in assay [11], 23.1 µM (inactive); in assay [12], 16.7 µM (inactive). Besides, the GI50 is 15.2 µM (inactive) in assay [13]; 15.4 µM (inactive) in [14]; 18.2 µM (inactive) in assay [15]; 27.2 µM (inactive) in [16]; 20.6 µM (inactive) in [18]; 16.9 µM (inactive) in assay [19]. Besides, in [20], the GI50 was 16.3 µM (inactive).
